This note sets out measurements from patent US11608328B2, “Chemical probes to identify anti-mycobacterial MmpL3 inhibitors” (Creighton University, priority 2019, dated 2023).

The assay deals with MmpL3tb(G253E) (Mycobacterium tuberculosis, UniProt P9WJV5, G253E). The class given is binding.
Consider `C[C@@H]1[C@H]2C[C@@H](C[C@H]1NC(=O)c1cc3ccccc3[nH]1)C2(C)C` [North 4], for which the “BLI binding to MmpL3tb(G253E) versus WT” value is given as “unaltered by the G253E mutation”.
On to `CC(C)=CCC/C(C)=C/CNCCNC1C2CC3CC(C2)CC1C3` (stereo not drawn) [SQ109], for which the “BLI binding to MmpL3tb(G253E) versus WT” value was “no binding to MmpL3tb(G253E) was detected”.
To `Cc1cc(C)c2cc(C(=O)NC3CCCCCCC3)[nH]c2c1` [North 21] belongs “no binding to MmpL3tb(G253E) was detected”.
